Test results taken from patent publication US8198434B2, “Process for preparing cefsulodin sodium” (IDEXX Laboratories, Inc., priority 2008, dated 2012).

Columns and labels:
Format in all cases: physicochemical
[1] = Stability study of cefsulodin sodium stored at 55° C., purity by HPLC (Example 3); conditions: for Purity Day 0: Day 0, HPLC peak area; for Purity Day 7: Day 7, HPLC peak area; for Purity Day 14: Day 14, HPLC peak area; for Purity Day 21: Day 21, HPLC peak area; for Purity Day 28: Day 28, HPLC peak area; for Purity Day 35: Day 35, HPLC peak area; for Purity Day 42: Day 42, HPLC peak area; for Purity Day 49: Day 49, HPLC peak area; for Purity Day 56: Day 56, HPLC peak area; for Purity Day 63: Day 63, HPLC peak area; for Purity Day 70: Day 70, HPLC peak area
Procedure: (§1) Three lots of cefsulodin sodium, prepared according to the process described in Example 2, were stored at 55° C. and 40° C. and the purity of the sample determined as a function of time using HPLC. […] The stability of a lyophilized sample of cefsulodin sodium containing about 5-6% water at 55° C. was also determined. The lyophilized sample was prepared by suspending cefsulodin in water, adding sodium hydroxide until the cefsulodin dissolved, and then removing the water by lyophilization. The area of the HPLC peak corresponding to cefsulodin was used to determine purity. The following assay was used to determine purity:
(§2) 1. 25 mM Sodium Acetate pH 4.5 • a. Measure out 2 L of HPLC grade water. • b. Add 4.1 g of sodium acetate. • c. Mix until dissolved. • d. Adjust the pH to 4.5 with HPLC grade acetic acid. • e. Filter the solution through a nylon filter.
(§3) 2. 3% acetonitrile-97% 25 mM sodium acetate pH 4.5 (Mobile Phase A) • a. Measure out 1940 mL of 25 mM sodium acetate into a 2 L flask. • b. Add 60 mL of HPLC grade acetonitrile. • c. Mix well.
(§4) 3. HPLC Grade acetonitrile (Mobile Phase B) • a. Transfer acetonitrile into a 1 L flask. Sample Preparation:
(§5) 1. Weigh out about 10 mg of cefsulodin into a 15 mL conical tube.
(§6) 2. Add […] of mobile phase A and mix to dissolve (1 mg/mL cefsulodin Stock solution).
(§7) 3. Transfer 1 mL of cefsulodin stock solution into another 15 mL conical tube.
(§8) 4. Add 7 mL of mobile phase A to make a 0.125 mg/mL solution of cefsulodin.
(§9) 5. Filter this solution through a nylon syringe filter into an HPLC vial.
(§10) 6. Analyze the sample by HPLC using the conditions described below.
(§11) Solvents: Pump A-Mobile Phase A • Pump B-Mobile Phase B
(§12) Detection wavelength: 254 nm
(§13) Initial Conditions: 100% Pump A-0% Pump B
(§14) The above gradient can be summarized as follows: maintain at 0% B for 0.3 min; at 0.3 min run a gradient to 70% B for 2.5 min; maintain at 70% B for 1 min; at 3.5 min go back to 0% B for 0.5 min; run at 0% B until the 8.00 min mark.

[2] = Stability study of cefsulodin sodium stored at 40° C., purity by HPLC (Example 3); conditions: for Purity Day 0: Day 0, HPLC peak area; for Purity Day 7: Day 7, HPLC peak area; for Purity Day 14: Day 14, HPLC peak area; for Purity Day 21: Day 21, HPLC peak area; for Purity Day 28: Day 28, HPLC peak area; for Purity Day 35: Day 35, HPLC peak area; for Purity Day 42: Day 42, HPLC peak area; for Purity Day 49: Day 49, HPLC peak area; for Purity Day 56: Day 56, HPLC peak area; for Purity Day 63: Day 63, HPLC peak area; for Purity Day 70: Day 70, HPLC peak area
Procedure: as §1, §2, §3, §4, §5, §6, §7, §8, §9, §10, §11, §12, §13, §14

[3] = Storage at about room temperature, purity by HPLC
Solubility in water = test: Solubility in water
[4] = Stability of needle-shaped and spherical-shaped cefsulodin sodium crystals at 55° C. (Example 5); conditions: for Purity Day 1 / Purity Day 7 / Purity Day 14 / Purity Day 21: crystal form stored at 55° C.
Procedure: Needle-shaped cefsulodin sodium crystals were obtain according to a process similar to the process described in Example 2.
Spherical-shaped cefsulodin sodium crystals were obtain according to the process described in Example 3.
The stability of each crystal form was measured at 55° C.

| Purity Day 0 [1] [%] | Purity Day 7 [1] [%] | Purity Day 14 [1] [%] | Purity Day 21 [1] [%] | Purity Day 28 [1] [%] | Purity Day 42 [1] [%] | Purity Day 49 [1] [%] | Purity Day 56 [1] [%] | Purity Day 63 [1] [%] | Purity Day 70 [1] [%] | Purity Day 0 [2] [%] | Purity Day 7 [2] [%] | Purity Day 14 [2] [%] | Purity Day 21 [2] [%] | Purity Day 28 [2] [%] | Purity Day 42 [2] [%] | Purity Day 49 [2] [%] | Purity Day 56 [2] [%] | Purity Day 63 [2] [%] | Purity Day 70 [2] [%] | Structure (SMILES) | also measured |
| --- | --- | --- | --- | --- | --- | --- | --- | --- | --- | --- | --- | --- | --- | --- | --- | --- | --- | --- | --- | --- | --- |
| 99.2 | 97.1 | 96.1 | 94.7 | 94.4 | 91.8 | 91.0 | 90.1 | 89.8 | 89.2 | 99.2 | 98.5 | 98.3 | 97.7 | 97.1 | 96.5 | 96.4 | 96.4 | 96.1 | 95.6 | NC(=O)c1cc[n+](CC2=C(C(=O)[O-])N3C(=O)[C@@H](NC(=O)[C@@H](c4ccccc4)S(=O)(=O)[O-])[C@H]3SC2)cc1.[Na+] [Lot 2, cefsulodin sodium] | Purity Day 35 [1]: 92.9%; Purity Day 35 [2]: 96.8% |
|  |  |  |  |  |  |  |  |  |  |  |  |  |  |  |  |  |  |  |  | NC(=O)c1cc[n+](CC2=C(C(=O)O)N3C(=O)[C@@H](NC(=O)[C@@H](c4ccccc4)S(=O)(=O)[O-])[C@H]3SC2)cc1 [cefsulodin sodium] | purity after storage for 29 days ([3]; about room temperature, 29 days): 80.4%; purity after storage for 56 days ([3]; about room temperature, 56 days): 76.7%; purity determined by HPLC before storage ([3]; initial, before storage at about room temperature): about 95% |
| 98.8 |  |  |  | 80.4 |  |  |  |  |  |  |  |  |  |  |  |  |  |  |  | NC(=O)c1cc[n+](CC2=C(C(=O)O)N3C(=O)[C@@H](NC(=O)[C@@H](c4ccccc4)S(=O)(=O)[O-])[C@H]3SC2)cc1 [Lyophilized, cefsulodin sodium] |  |
|  |  |  |  |  |  |  |  |  |  |  |  |  |  |  |  |  |  |  |  | NC(=O)c1cc[n+](CC2=C(C(=O)[O-])N3C(=O)[C@@H](NC(=O)[C@@H](c4ccccc4)S(=O)(=O)[O-])[C@H]3SC2)cc1.[Na+] [monosodium cefsulodin, monosodium salt of cefsulodin] | solubility in water (Solubility in water): more soluble in water that cefsulodin |
|  |  |  |  |  |  |  |  |  |  |  |  |  |  |  |  |  |  |  |  | NC(=O)c1cc[n+](CC2=C(C(=O)O)N3C(=O)[C@@H](NC(=O)[C@@H](c4ccccc4)S(=O)(=O)[O-])[C@H]3SC2)cc1 [cefsulodin] | solubility in water (Solubility in water): insoluble in water |
| 99.2 | 97.2 | 96.0 | 94.9 | 94.3 | 91.8 | 90.9 | 90.5 | 89.8 | 89.1 | 99.2 | 98.2 | 98.2 | 97.5 | 97.2 | 96.3 | 96.4 | 96.0 | 96.0 | 95.3 | NC(=O)c1cc[n+](CC2=C(C(=O)[O-])N3C(=O)[C@@H](NC(=O)[C@@H](c4ccccc4)S(=O)(=O)[O-])[C@H]3SC2)cc1.[Na+] [Lot 1, cefsulodin sodium] | Purity Day 35 [1]: 93.4%; Purity Day 35 [2]: 96.4% |
|  |  |  |  |  |  |  |  |  |  |  |  |  |  |  |  |  |  |  |  | NC(=O)c1cc[n+](CC2=C(C(=O)[O-])N3C(=O)[C@@H](NC(=O)[C@@H](c4ccccc4)S(=O)(=O)[O-])[C@H]3SC2)cc1.[Na+] [Spherical-shaped, cefsulodin sodium] | Purity Day 1 [4]: 98.5; Purity Day 7 [4]: 86.3; Purity Day 14 [4]: 83.7; Purity Day 21 [4]: 83.1 |
| 99.3 | 96.9 | 96.1 | 94.8 | 93.9 | 93.4 | 92.6 | 92.7 | 91.3 | 91.3 | 99.3 | 98.4 | 98.5 | 98.1 | 97.9 | 96.2 | 97.2 | 97.3 | 97.0 | 97.0 | NC(=O)c1cc[n+](CC2=C(C(=O)[O-])N3C(=O)[C@@H](NC(=O)[C@@H](c4ccccc4)S(=O)(=O)[O-])[C@H]3SC2)cc1.[Na+] [Lot 3, cefsulodin sodium] |  |
|  |  |  |  |  |  |  |  |  |  |  |  |  |  |  |  |  |  |  |  | NC(=O)c1cc[n+](CC2=C(C(=O)[O-])N3C(=O)[C@@H](NC(=O)[C@@H](c4ccccc4)S(=O)(=O)[O-])[C@H]3SC2)cc1.[Na+] [Needle-shaped, cefsulodin sodium] | stability of crystal forms (comparison) ([4]; 55° C.): more stable than the spherical-shaped crystals; Purity Day 1 [4]: 99.2; Purity Day 7 [4]: 98.1; Purity Day 14 [4]: 96.8; Purity Day 21 [4]: 95.7 |
